# Assay results taken from patent publication US4401666A (priority 1982, dated 1983).
# Tests used:
# Yeast Group = assay: Broth dilution growth inhibition (MIC), isolates from mastitic cows; type: cell-based; conditions: 37° C., 18 h, 5 isolates
# Klebsiella pneumoniae = system: Klebsiella pneumoniae
# Method: (§1) Bacterial isolates for these studies were obtained from the New York State Mastitis Control Program, a division of veterinary clinical services of the New York State College of Veterinary Medicine, Cornell University. Samples were from cows with clinical mastitis or from milk cows that were cultured for a routine herd survey. Mastitis pathogens were identified by the use of standard bacteriologic technique^(1).
# (§2) Concentrations inhibiting growth by 50% were determined using broth dilution test procedures^(2). Briefly 0.1 ml of cultures containing approximately 9×10^6 organisms/ml were inoculated into 10 mls of Tryptose-soy broth^(3) containing either 0, 1, 10, 100, or 1000 ppm of zinc pyridine-2-thione-N-oxide. These tubes were incubated at 37° C. for 18 hours and optical densities were read at 550 nanometers. Blanks for each test level consisted of a Tryptose-soy broth tube with the same concentration of test material. Concentrations of test material inhibiting growth by 50% were computed by probit analysis^(4).
# Pseudomonas aeruginosa = conditions: 37° C., 18 h, 2 isolates
# Method: as §1, §2
# Escherichia coli = system: Escherichia coli
# Method: as §1, §2
# [1] = system: microorganisms which cause bovine mastitis; conditions: broth
# Method: as §1, §2
# Staphylococcus aureus = conditions: 37° C., 18 h, 5 isolates
# Method: as §1, §2
# [2] = system: udder of healthy, lactating cow; conditions: bovine, in vivo
# rats = conditions: cited from earlier work
# E. coli = assay: MIC in sterile, homogenized, skim milk; type: cell-based, Escherichia coli; conditions: 37° C., 4 h
# Method: (§3) Cultures of E. coli and S. aureus were isolated from mammary glands of cows with mastitis. Cultures were streaked on blood agar plates and incubated for 24 hours at 37° C. Colonies from these plates were inoculated into nutrient broth tubes and incubated at 37° C. overnight. One-tenth milliliter aliquots of these cultures were inoculated into 10 milliliter tubes of sterile, homogenized, skim milk containing various concentrations of zinc pyridine-2-thione-N-oxide. The concentrations of this active compound ranged from 0.01 ppm to 100 ppm and were made by serially diluting a 1% by weight aqueous suspension of zinc pyridine-2-thione-N-oxide in 10 milliliter portions of sterile skim milk.
# (§4) The milk tubes containing bacteria and zinc pyridine-2-thione-N-oxide were incubated in a shaking water bath at 37° C. for 4 hours; at the end of the incubation period, 0.1 ml of the milk incubate was added to 2 ml of soft agar (0.75% by weight agar and the rest being water) and plated on blood agar plates. These plates were incubated at 37° C. for 18 hours and the microorganisms present on each plate were counted with an NBS Automatic Colony Counter.
# [3] = bovine, in vivo
# [4] = system: udder of normal, lactating cows; conditions: bovine, in vivo
# S. aureus = assay: MIC in sterile, homogenized, skim milk; type: cell-based, Staphylococcus aureus; conditions: 37° C., 4 h
# Method: as §3, §4
# [5] = Tryptose-soy broth, 37° C., 18 h, 3 isolates
# [6] = Tryptose-soy broth, 37° C., 18 h, 5 isolates
smiles,measurement,setting,value
"[Na+].[O-][n+]1ccccc1[S-] [sodium pyridine-2-thione-N-oxide, 2-pyridinethiol-1-oxide, Na salt]",50% by Weight Growth Inhibited,"Yeast Group; Table 1A, broth",< 1.0
same,50% by Weight Growth Inhibited,"Klebsiella pneumoniae; Table 1A, broth, 37° C., 18 h, 3 isolates",5.2 ± 0.8
same,50% by Weight Growth Inhibited,"Pseudomonas aeruginosa; Table 1A, broth",38.0 ± 5.2
same,50% by Weight Growth Inhibited,"Escherichia coli; Table 1A, broth, 37° C., 18 h, 5 isolates",3.4 ± 0.8
same,effectiveness against microorganisms which cause bovine mastitis,[1],effective
same,50% by Weight Growth Inhibited,"Staphylococcus aureus; Table 1A, broth",< 1.0
"[O-]n1ccccc1=S.[O-]n1ccccc1=S.[Zn+2] [zinc pyridine-2-thione-N-oxide, bis[1-hydroxy-2(1H)pyridinethionato]zinc]",change in CMT scores,[2],very slight rise
same,effect on CMT scores,[2],no effect
same,effect on other physical observations,[2],no effect
same,firmness of the udder to palpation,[2],increased firmness of the udder to palpation
same,irritation caused to the udder,[2],low irritation
same,LD50,rats,200 mg/kg
same,MIC at 95% Inhibition of Growth,E. coli,10 ppm
same,MIC at 100% Inhibition of Growth,E. coli,100 ppm
same,disappearance from the milk,[3],relative quick disappearance from the milk
same,residual amounts in milk expected at lower infused amounts,[3],may be expected to be lower
same,"residual content in milk, summary",[3],very low levels
same,50% by Weight Growth Inhibited (concentration inhibiting growth by 50%),Yeast Group; Tryptose-soy broth,< 1.0 ppm
same,100% by Weight Growth Inhibited (MIC),Yeast Group; Tryptose-soy broth,3-6 ppm
same,"CMT scores, overall",[4],increased CTM scores
same,CMT values at 504 hours after the first dose,[4],Normal values
same,adverse effects on cow's udder,[4],some adverse effects on cow's udder
same,change in CMT scores,[4],increase
same,flakes and clots in milk,[4],produced flakes and clots in milk
same,milk output,[4],depressed milk output
same,milk production,[4],reduced more dramatically than the 1% infusion
same,overall effects compared with 1% infusion,[4],in general similar to 1% infusion except with increased severity
same,systemic effects,[4],no systemic effects were noted
same,warmth of the udder,[4],felt warm
same,50% by Weight Growth Inhibited (concentration inhibiting growth by 50%),Klebsiella pneumoniae; [5],2.1 ± 0.3 ppm
same,100% by Weight Growth Inhibited (MIC),Klebsiella pneumoniae; [5],10-20 ppm
same,effectiveness against K. pneumoniae,Klebsiella pneumoniae; broth,especially effective
same,50% by Weight Growth Inhibited (concentration inhibiting growth by 50%),Pseudomonas aeruginosa; Tryptose-soy broth,9.6 ± 6.4 ppm
same,100% by Weight Growth Inhibited (MIC),Pseudomonas aeruginosa; Tryptose-soy broth,80-100 ppm
same,50% by Weight Growth Inhibited (concentration inhibiting growth by 50%),Escherichia coli; [6],2.5 ± 0.5 ppm
same,100% by Weight Growth Inhibited (MIC),Escherichia coli; [6],13-20 ppm
same,effectiveness against E. coli,Escherichia coli; broth,especially effective
same,effectiveness against microorganisms which cause bovine mastitis,[1],effective
same,50% by Weight Growth Inhibited (concentration inhibiting growth by 50%),Staphylococcus aureus; Tryptose-soy broth,< 1.0 ppm
same,100% by Weight Growth Inhibited (MIC),Staphylococcus aureus; Tryptose-soy broth,5-10 ppm
same,MIC at 95% Inhibition of Growth,S. aureus,10 ppm
same,MIC at 100% Inhibition of Growth,S. aureus,100 ppm
